Consider two compounds from US12404232B2, “Compounds and compositions for intracellular delivery of therapeutic agents” (ModernaTX, Inc., priority 2015, dated 2025).

The structures appear in SMILES notation.

Series [1] can be described thus: Particle size and polydispersity index of nanoparticle compositions (Zetasizer Nano ZS). In kind it is physicochemical. The method in brief:
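Formulations at 50:10:38.5:1.5 mol % (ionizable lipid, DSPC, cholesterol, PEG-DMG) encapsulating Luc or hEPO mRNA were measured in 1×PBS on a Zetasizer Nano ZS to give size and polydispersity index.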

Series [2] is described as follows: Encapsulation of RNA by the nanoparticle composition (QUANT-IT RIBOGREEN RNA assay). In kind it is physicochemical. The text has this: The efficiency of encapsulation of a therapeutic and/or prophylactic describes the amount of therapeutic and/or prophylactic that is encapsulated or otherwise associated with a nanoparticle composition after preparation, relative to the initial amount provided. The encapsulation efficiency is desirably high (e.g., close to 100%). The encapsulation efficiency may be measured, for example, by comparing the amount of therapeutic and/or prophylactic in a solution containing the nanoparticle composition before and after breaking up the nanoparticle composition with one or more organic solvents or detergents. Fluorescence may be used to measure the amount of free therapeutic and/or prophylactic (e.g., RNA) in a solution. For the nanoparticle compositions described herein, the encapsulation efficiency of a therapeutic and/or prophylactic may be at least 50%, for example 50%, 55%, 60%, 65%, 70%, 75%, 80%, 85%, 90%, 91%, 92%, 93%, 94%, 95%, 96%, 97%, 98%, 99%, or 100%. In some embodiments, the encapsulation efficiency may be at least 80%. In certain embodiments, the encapsulation efficiency may be at least 90%.
For nanoparticle compositions including an RNA, a QUANT-IT™ RIBOGREEN® RNA assay (Invitrogen Corporation Carlsbad, CA) can be used to evaluate the encapsulation of an RNA by the nanoparticle composition. The samples are diluted to a concentration of approximately […] in a TE buffer solution (10 mM Tris-HCl, 1 mM EDTA, pH 7.5). 50 μL of the diluted samples are transferred to a polystyrene 96 well plate and either 50 μL of TE buffer or 50 μL of a 2% Triton X-100 solution is added to the wells. The plate is incubated at a temperature of 37° C. for 15 minutes. The RIBOGREEN® reagent is diluted 1:100 in TE buffer, and 100 μL of this solution is added to each well. The fluorescence intensity can be measured using a fluorescence plate reader (Wallac Victor 1420 Multilablel Counter; Perkin Elmer, Waltham, MA) at an excitation wavelength of, for example, about 480 nm and an emission wavelength of, for example, about 520 nm. The fluorescence values of the reagent blank are subtracted from that of each of the samples and the percentage of free RNA is determined by dividing the fluorescence intensity of the intact sample (without addition of Triton X-100) by the fluorescence value of the disrupted sample (caused by the addition of Triton X-100).
Initial studies were performed to compare the delivery efficiency of nanoparticle compositions including various compounds according to Formula (I), (IA), (II), (IIa), (IIb), (IIc), (IId) or (IIe). The cationic lipid MC3 is a current standard in the art. Accordingly, the standard MC3 formulation including about 50 mol % MC3, about 10 mol % DSPC, about 38.5 mol % cholesterol, and about 1.5 mol % PEG-DMG was used as a basis for this study. Nanoparticle compositions including DSPC as a phospholipid, cholesterol as a structural lipid, PEG-DMG as a PEG lipid, an RNA, and a compound according to Formula (I), (IA), (II), (IIa), (IIb), (IIc), (IId) or (IIe) selected from Compounds 1-159, 168-170, and 173-175 were prepared according to or via methods similar to those described in Examples 1 and 2. The ratios of the lipids were 50:10:38.5:1.5 mol % for the lipid according to Formula (I), (IA), (II), (IIa), (IIb), (IIc), (IId) or (IIe):DSPC:cholesterol:PEG-DMG. The RNA used was an mRNA encoding G5 luciferase (Luc) or G5 hEPO. Tables 1A-1B summarize the content and characteristics of the formulations. […]

Series [3] relates to mice. Nature of the series: hEPO expression in mice after intravenous administration. As to conditions: for hEPO expression (pg/ml) 3h / hEPO expression (pg/ml) 6 h / hEPO expression (pg/ml) 24 h: 0.5 mpk. In kind it is in vivo. The procedure: Sample formulations of nanoparticle compositions including different lipids are generally first evaluated according to Luc expression in vivo. The activity of several such compositions was further evaluated using an mRNA encoding hEPO. Nanoparticle compositions including Compounds 6, 18, 25, 30, 108-112, 60, and 122, or MC3 were prepared according to Example 2.
The expression of hEPO and cytokine induction in mice intravenously administered a nanoparticle composition at a dose of 0.5 mpk were measured at 3, 6, and 24 hours. […] The expression of hEPO in mice intramuscularly administered a nanoparticle composition from Table 1B at a dose of 0.01 mpk were measured at 3, 6, and 24 hours. […] (see also FIG. 9.)
Table 12 compares the nanoparticle compositions including compounds according to Formula (I), (IA), (II), (IIa), (IIb), (IIc), (IId) or (IIe) to the compositions including MC3 on the basis of expression and flux levels. […] Thus, these lipids may be useful in nanoparticle composition therapeutics. […]

Series [4] has as its system Cynomolgus monkeys. The series is described as follows: Anti-HA (anti-hemagglutinin) antibody expression in Cynomolgus monkeys after intravenous infusion. It is filed as in vivo. Conditions: i.v. infusion 60 minutes. As to the method:
Results of hEPO expression studies were validated using a standard MC3 formulation and a nanoparticle composition containing Compound 18 including an mRNA encoding an anti-hemagglutinin (anti-HA) antibody. Cynomolgus monkeys were administered a single dose of 0.1 mpk or 0.3 mpk of a nanoparticle composition containing Compound 18 (see Table 33; prepared according to Example 2) including an mRNA encoding anti-HA antibody via intravenous infusion for 60 minutes.

[5] abbreviates: formulated with hEPO mRNA (Table 1B).
Where [6] appears, read: hEPO mRNA, lipid:DSPC:Chol:PEG-DMG (50:10:38.5:1.5) (Table 10).
The mark [7] stands for this setting: nanoparticle composition lipid:DSPC:cholesterol:PEG-DMG 50:10:38.5:1.5 mol %, mRNA encoding Luc or hEPO (Table 1A).
[8] abbreviates: hEPO mRNA, (50:10:38.5:1.5) (Table 10).
The mark [9] stands for this setting: nanoparticle composition 50:10:38.5:1.5 mol % (Table 1A).
The mark [10] stands for this setting: mRNA encoding anti-HA antibody (Table 33).

On to `CCCCCC=CCC=CCCCCCCCCC(CCCCCCCCC=CCC=CCCCCC)OC(=O)CCCN(C)C` (centres unmarked) [MC3, heptatriaconta-6,9,28,31-tetraen-19-yl 4-(dimethylamino)butanoate, reference compound], for which the “Size (nm)” value in series [1] (setting [5]) is 57.7 nm; in series [1] (setting [6]), 73.7 nm; in series [1] (setting [7]) it was 79.7 nm. Also, the entries for the “EE (%)” value in series [2] (setting [5]), in series [2] (setting [8]) and in series [2] (setting [9]) were 99.01%, 97.22% and 97.3%, respectively. Moreover, in series [3], the “hEPO expression (pg/ml) 3h” value was 1.57e+06 pg/mL. Moreover, in series [3], the “hEPO expression (pg/ml) 6 h” value was found to be 1.83e+06 pg/mL. For the same compound, the “hEPO expression (pg/ml) 24 h” value in series [3] was 810000 pg/mL. In addition, the results for the AUC in series [4] (dose 0.1 mpk) and in series [4] (dose 0.3 mpk) were 77.05 µg·h/mL and 235.7 µg·h/mL, respectively.
For `CCCCCCCCCOC(=O)CCCCCCCN(CCO)CCCCCCCC(=O)OC(CCCCCCCC)CCCCCCCC` [Compound 18, Heptadecan-9-yl 8-((2-hydroxyethyl)(8-(nonyloxy)-8-oxooctyl)amino)octanoate], the “Size (nm)” value in series [1] (setting [6]) is given as 78.6 nm; in series [1] (setting [7]), 86.2 nm. Besides, the “Diameter (nm)” value in series [1] (setting [10]) worked out at 76.8 nm. The PDI in series [1] (setting [9]) was determined as 0.042. The “EE (%)” value in series [2] (setting [8]) stood at 97.34%; in series [2] (setting [10]) it was 79.3%. The “hEPO concentrations compared with MC3 formulations at each time point” value in series [3] (0.5 mpk, 3, 6 and 24 hours) is “higher hEPO concentrations than MC3 formulations”. Besides, in series [3], the “hEPO expression (pg/ml) 3h” value amounted to 3e+06 pg/mL. The “hEPO expression (pg/ml) 6 h” value in series [3] was 3.38e+06 pg/mL. Moreover, the “hEPO expression (pg/ml) 24 h” value in series [3] was 1.8e+06 pg/mL. The AUC in series [4] (dose 0.1 mpk) was determined as 354.3 µg·h/mL; in series [4] (dose 0.3 mpk), 1055 µg·h/mL.
